Series [1] relates to NFκB-inducible genes. The series can be described thus: QPCR of NFκB-inducible genes in TNFα-treated HEK293 cells. In kind it is cell-based, human. The note with it: HEK293, 5 μM pretreatment 1 hour, 10 ng/ml TNFα 30 minutes. How it is done: The cells were seeded in 6-well plates at 6×10^5 cells/well in media containing 3% serum and cultured overnight. The next day, cells were pretreated with 5 μM Senexin A or with DMSO vehicle control for 1 hour and treated with or without 10 ng/ml TNFα for 30 minutes. Cells were then lysed for total RNA purification with the RNeasy Kit (Qiagen). For QPCR analysis of NFκB-inducible genes, cDNA was prepared using Maxima First Strand cDNA Synthesis Kit (Thermo Scientific/Fermentas, K1641) and gene expression was measured by QPCR with gene-specific primers, with RPL13A as a normalization standard, using Maxima SYBR Green/ROX qPCR Master Mix (Thermo Scientific/Fermentas, K0223) and ABI Prism 7900HT Detection system (Life technologies).

The test system of series [2] is NFκB-inducible genes. Briefly: QPCR of NFκB-inducible genes in TNFα-treated wild-type HCT116 cells. In kind it is cell-based, human. The note with it: wild-type HCT116, 5 μM pretreatment 1 hour, 10 ng/ml TNFα 30 minutes. How it is done: (§1) We have verified the effect of CDK8/19 inhibition on NFκB-mediated induction of transcription in human HCT116 colon carcinoma cells, where we also used the availability of a p21−/− derivative of this cell line (Waldman et al., 1996) to determine if this effect depends on p21. The wild-type and p21−/− HCT116 cells were seeded in 6-well plates at 6×10^5 cells/well in media with 10% serum and cultured overnight. The next day, cells were pretreated with 5 μM Senexin A or with DMSO vehicle control for 1 hour and treated with or without 10 ng/ml TNFα for 30 minutes. Cells were then lysed for RNA purification and QPCR analysis of NFκB-inducible genes.

The test system of series [3] is NFκB-dependent promoter. The series can be described thus: NFκB-GFP reporter assay, induction by IPTG-inducible p21 (flow cytometric). The format is cell-based, human. The note with it: HT1080 p21-9 derived NFκB-GFP reporter cells, 50 mM IPTG for 72 hrs, different concentrations. The protocol:
(§2) We have tested the effects of SNX2-class compounds on NFκB transcriptional activity. These assays were conducted with a reporter cell line that we derived from HT1080 p21-9 cells carrying IPTG-inducible p21 (Chang et al., 1999) after transduction with Cignal Lenti NFκB Reporter lentivirus (SA Biosciences), which expresses GFP from a NFκB-dependent minimal promoter. The reporter cell line was then selected for a high basal level of NFκB-dependent GFP expression, which was further increased by TNFα or upon p21 induction by IPTG.

Series [4] has as its system NFκB-dependent promoter. Briefly: NFκB-GFP reporter assay, TNFα induction (96-well fluorometric). The note with it: HT1080-based NFκB-GFP reporter cells. The format is cell-based, human. The protocol:
as §2
The ability of SNX2-class compounds to prevent the induction of the NFκB-dependent promoter by p21 was not surprising, since these compounds were identified by their ability to prevent p21-mediated induction of another promoter (CMV) (Chang et al., 2008), and NFκB stimulation by p21 was already known.
On the technique in general: In a reporter assay the amount or activity of a reporter protein is the signal.

Another series relates to p65. Briefly: TransAM NFκB DNA-binding ELISA of nuclear extracts, p65. In kind it is cell-based, human. The note with it: HT1080 and HEK293 cells, untreated and TNFα-treated; 5 μM Senexin A, 60 μM TPCK, 10 μM MG115 for 3 hours. The text has this: (§3) Given the role of NFxB in the induction of transcription by p21 (Poole et al., 2004), we have tested SNX2 for the ability to decrease the amount of active NFκB in the nucleus, a general assay for different known classes of NFκB inhibitors. As shown in FIG. 8 of US patent publication 20080033000, we have found, using ACTIVE MOTIF TransAM™ NFκB p65 Chemi and NFκB p50 Chemi Transcription Factor Assay Kits, that SNX2 had no effect on the amount of p50 or p65 NFκB subunits binding to NFκB consensus sequence in nuclear extracts from HT 1080 cells, untreated or treated with NFκB inducer TNFα.
(§4) The DNA-binding activities of nuclear NFκB proteins were measured by the ELISA-based TransAM NFκB Family Transcriptional Factor Assay Kit (Active Motif) following manufacturer's protocol. HT1080 and HEK293 cells were pretreated with inhibitors (5 μM Senexin A, 60 μM TPCK, 10 μM MG115) for 3 hours and then treated with 10 ng/ml TNF for 30 minutes before nuclear extract preparation with Nuclear Extraction Kit (Active Motif). Nuclear extracts were assayed at 5 μg/well for p65 and 2.5 μg/well for p50 DNA binding.
(In general: ELISA stands for enzyme-linked immunosorbent assay.)

Series [5] has as its system TNFα-induced NFκB-dependent transcription. Briefly: NFkB-GFP reporter flow cytometry after inhibitor and TNFα (GFP fluorescence). The settings on record: HT1080-derived reporter, inhibitor 3 hours then 18 hours TNFα (10 ng/ml). The format is cell-based, human. The protocol: (§5) We have compared Senexin A to two known proteasome-targeting NFκB inhibitors, N-tosyl-L-phenylalanine chloromethyl ketone (TPCK) (Ha et al., 2009) and MG115 in regard to their cytotoxicity and their effect on the nuclear translocation of active NFκB. In the experiment shown in FIG. 7, the HT1080-derived NFkB-GFP reporter cell line was seeded in 60 mm plates at 1.5×10^5 cells per plate and cultured overnight before being treated with different NFκB inhibitors at the concentrations indicated in FIG. 7 for 3 hours, followed by 18 hours TNFα (10 ng/ml) stimulation. The treated cells were trypsinized, resuspended in PBS, mixed with 5 μg/ml propidium iodide (PI), and analyzed using LSRII flow cytometer (BD Biosciences) for GFP fluorescence (left panel) and the percentage of dead (PI-positive) cells (right panel).

In series [6] the test system is HT1080-derived NFkB-GFP reporter cell line. Briefly: Propidium iodide flow cytometry for dead cells. In kind it is cell-based, human. The settings on record: inhibitor 3 hours then 18 hours TNFα (10 ng/ml). The protocol: as §5
In general terms: A flow cytometer gives signals particle by particle.

The test system of a further series is p50. Briefly: TransAM NFκB DNA-binding ELISA of nuclear extracts, p50. The note with it: HT1080 and HEK293 cells, untreated and TNFα-treated; 5 μM Senexin A, 60 μM TPCK, 10 μM MG115 for 3 hours. In kind it is cell-based, human.
Source text: as §3, §4

The subject of series [7] is NFκB-inducible genes. The series can be described thus: QPCR of NFκB-inducible genes in TNFα-treated p21−/− HCT116 cells. The note with it: p21−/− HCT116, 5 μM pretreatment 1 hour, 10 ng/ml TNFα 30 minutes. The format is cell-based, human. How it is done: as §1
For series [8] the following is noted: bone loss therapy (Hiligsmann and Reginster, 2010); cited from earlier work.
The conditions of series [9]: clinical experience (Cavaletti and Jakubowiak, 2010); cited from earlier work.
The test system of series [10] is induction of transcription by p21. The note with it: at concentrations that inhibit NFκB (Poole et al., 2004); cited from earlier work.

The text below walks through data of patent US20200048208A1, “TREATMENT OF DISEASES OR DISORDERS CAUSED BY INDUCED NFkB TRANSCRIPTIONAL ACTIVITY” (Senex Biotechnology, Inc., priority 2011, published 2020).

Entries after “also recorded” stand apart in the source; their conditions may differ. Non-standard residues stand in square brackets, D forms with d. Residues, ends and D or L forms follow the SMILES beside them. *: point of attachment. Nva = CCC[C@H](N)C(=O)O; Cbz = O=C(OCc1ccccc1)*

Take `N#Cc1ccc2ncnc(NCCc3ccccc3)c2c1` [SNX2-1-53]: the “induction of NFκB-regulated genes by TNFα” value in the series with NFκB-inducible genes [1] is “drastically inhibited”. Moreover, the TNFα-induced gene expression entry with NFκB-inducible genes [2] and in the series on NFκB-inducible genes [7] was “inhibited TNFα-induced gene expression to the same degree” in each case. Besides, the “induction of the NFκB-dependent promoter by p21 (GFP expression)” value with NFκB-dependent promoter [3] is on record as “strongly inhibited”; with NFκB-dependent promoter [3] (listed as Senexin A), “dose dependent inhibition”. In the series on NFκB-dependent promoter [4] (10 ng/ml TNFα for 18 hrs), the “TNFα-induced NFκB activity (GFP expression normalized by Hoechst 33342)” value is reported as “inhibited TNFα-induced NFκB activity”. The “basal NFκB activity (normalized GFP expression)” value in the series with NFκB-dependent promoter [4] (untreated (no TNFα)) is “did not significantly inhibit”. In addition, in the series on p65, the “amount of active p65 (DNA binding) in nuclear extracts” value (“amount of active p65 (DNA binding)” below) is “does not block; also recorded: indistinguishable from the control”. Besides, in series [5] (listed as Senexin A), the “TNFα-induced NFκB-dependent transcription (GFP fluorescence)” value is “inhibits NFκB activation; also recorded: inhibited TNFα-induced NFκB-dependent transcription”. For the same compound, in [6] (listed as Senexin A), the “fraction of dead (PI-positive) cells” value is given as “minimal effects on cell viability; also recorded: did not”. Also, the “amount of active p50 (DNA binding) in nuclear extracts” value (from here on “amount of active p50 (DNA binding)”) in the series with p50 was “does not block; also recorded: indistinguishable from the control”.

For denosumab, the safety profile result in series [8] is “good safety profile”.

On to `CC(C)C[C@H](NC(=O)[C@H](Cc1ccccc1)NC(=O)c1cnccn1)B(O)O` [Bortezomib], for which the Bortezomib-induced peripheral neuropathy in [9] was 37-44 % of patients.

Regarding `CCC[C@@H](C=O)NC(=O)[C@H](CC(C)C)NC(=O)[C@H](CC(C)C)NC(=O)OCc1ccccc1` [MG115, reference compound] (Cbz-Leu-Leu-[Nva]-aldehyde), the “amount of active p65 (DNA binding)” value in the series with p65 is “strongly decreased”. In addition, the “TNFα-induced NFκB-dependent transcription (GFP fluorescence)” value in [5] is “inhibited TNFα-induced NFκB-dependent transcription”. For the same compound, the “fraction of dead (PI-positive) cells” value in [6] is “strongly increased the fraction of dead cells”. Also, the “amount of active p50 (DNA binding)” value with p50 is “strongly decreased”.

As to `CC1=C(CC(=O)O)c2cc(F)ccc2/C1=C\c1ccc([S+](C)[O-])cc1` (stereo not shown) [Sulindac], the “induction of transcription by p21” value in [10] is on record as “inhibited”.

In the case of “N-tosyl-L-phenylalanine chloromethyl ketone [TPCK, reference compound]”, the “amount of active p65 (DNA binding)” value in the series on p65 is listed as “strongly decreased”. In addition, the “TNFα-induced NFκB-dependent transcription (GFP fluorescence)” value in [5] was “inhibited TNFα-induced NFκB-dependent transcription”. For the same compound, the “fraction of dead (PI-positive) cells” value in [6] is recorded as “strongly increased the fraction of dead cells”. The “amount of active p50 (DNA binding)” value in the series with p50 is “strongly decreased”.
